Assay results reported in patent US20050176655A1, “Novel macrolide derivatives havaing effect of potentiating antifungal activity” (priority 2002, published 2005).

Key:
[1] = test system: Candida albicans ATCC 64548; experiment: Paper disk method, enhancing action for activities of azole antifungal agents; type: cell-based; settings: 24 hours; for Inhibition activity (inhibition ring mm) C. albicans ATCC 64548 GYM / Transparency of the inhibition ring C. albicans ATCC 64548 GYM: miconazole 0.03 μg/ml; for Inhibition activity (inhibition ring mm) C. albicans ATCC 64548 GYF / Transparency of the inhibition ring C. albicans ATCC 64548 GYF: fluconazole 0.5 μg/ml
Experimental: (§1) Test organisms used were Candida albicans ATCC 64548, fluconazole resistant Candida albicans ATCC 64550 and Aspergillus niger ATCC 6275. Candida spp. were cultured in Waksman broth (glucose 2.0%, peptone 0.5%, dry yeast 0.3%, meat extract 0.5%, NaCl 0.5% and CaCO3 0.3%, pH 7.0) at 27° C. for 40 hours, then 0.1% thereof was inoculated on GY agar medium (glucose 1.0%, yeast extract 0.5% and agar 0.8%, pH 6.0). Spore suspension 0.2% of Aspergillus niger ATCC 6275 was inoculated on GY agar medium.
(§2) Azole antifungal agents used were miconazole (Sigma Inc., the U.S.) and fluconazole (ICN Pharmaceuticals, Inc., the U.S.), and were added at concentrations without affecting growth on each test organisms follows.
Candida albicans ATCC 64548: miconazole 0.03 μg/ml or fluconazole 0.5 μg/ml.
(§3) In the above medium, a medium added with miconazole to GY medium (control) is designated as GYM, and a medium added with fluconazole is designated as GYF. Activities were assessed by means of paper disk method (thickness: 8 mm, ADVANTEC MFS INC., Japan). Diameter of inhibition ring is expressed with mm unit after culturing Candida spp. for 24 hours and Aspergillus niger ATCC 6275 for 48 hours. Transparency of the inhibition ring is assessed with 5 degrees of A, B, C, D and E (transparence<A<B<C<D<E<opaque).

[2] = test system: Aspergillus niger ATCC 6275; experiment: as above; type: cell-based; settings: 48 hours; for Inhibition activity (inhibition ring mm) A. niger ATCC 6275 GYF / Transparency of the inhibition ring A. niger ATCC 6275 GYF: fluconazole 10 μg/ml
Experimental: as §1, §2
Aspergillus niger ATCC 6275: miconazole 0.1 μg/ml or fluconazole 10 μg/ml.
as §3

[3] = 100 μg/8 mm disk, GYM, miconazole 0.1 μg/ml
[4] = 50 μg/8 mm disk, GY medium (control, no azole)

Compound	Inhibition activity (inhibition ring mm) C. albicans ATCC 64548 GYM ([1]; 10 μg/8 mm disk) [mm]	Transparency of the inhibition ring C. albicans ATCC 64548 GYM ([1]; 10 μg/8 mm disk)	Inhibition activity (inhibition ring mm) C. albicans ATCC 64548 GYM ([1]; 50 μg/8 mm disk) [mm]	Transparency of the inhibition ring C. albicans ATCC 64548 GYM ([1]; 50 μg/8 mm disk)	Inhibition activity (inhibition ring mm) C. albicans ATCC 64548 GYM ([1]; 100 μg/8 mm disk) [mm]	Transparency of the inhibition ring C. albicans ATCC 64548 GYM ([1]; 100 μg/8 mm disk)	other results
2′,4″,13-Tri-O-anhydro-pseudoerythromycin A 6,9-hemiketal [Compound 719]	9	E (Growth of test organism was inhibited 35% or less.)	10	E (Growth of test organism was inhibited 35% or less.)	13	E (Growth of test organism was inhibited 35% or less.)	
CCC(O)C(C)(O)C1OC(=O)C(C)C(OC2CC(C)(OC)C(O)C(C)O2)C(C)C(OC2OC(C)CC(N(C)CCN(C)C3CC(C)OC(OC4C(C)C(OC5CC(C)(OC)C(O)C(C)O5)C(C)C(=O)OC(C(C)(O)C(O)CC)C(C)C5=C(C)CC4(C)O5)C3O)C2O)C2(C)CC(C)=C(O2)C1C (centres unmarked) [Compound 741, 3′-de-N-methyl-3′-N-{-amino-(3′-de-N-methyl-anhydro-pseudoerythromycin A 6,9-hemiketal)}ethyl-anhydro-pseudoerythromycinA 6,9-hemiketal]					14	D (Growth of test organism was inhibited 35% or more and 55% or less.)	
CCC1OC(=O)C(C)C(OC2CC(C)(OC)C(O)C(C)O2)C(C)C(OC2OC(C)CC(N(C)CCN(C)C3CC(C)OC(OC4C(C)C(OC5CC(C)(OC)C(O)C(C)O5)C(C)C(=O)OC(CC)C(C)(O)C(O)C(C)C(=O)C(C)CC4(C)O)C3O)C2O)C(C)(O)CC(C)C(=O)C(C)C(O)C1(C)O (centres unmarked) [Compound 752, 3′-de-N-methyl-3′-N-{2-amino-(3′-de-N-methyl-erythromycin A)}ethyl-erythromycin A]					12	E (Growth of test organism was inhibited 35% or less.)	Inhibition activity (inhibition ring mm) A. niger ATCC 6275 GYF ([2]; 50 μg/8 mm disk): 17 mm; Transparency of the inhibition ring A. niger ATCC 6275 GYF ([2]; 50 μg/8 mm disk): E (Growth of test organism was inhibited 35% or less.)
CCC1OC(=O)C(C)C(OC2CC(C)(OC)C(O)C(C)O2)C(C)C(OC2OC(C)CC(N(C)CCN(C)C3CC(C)OC(OC4C(C)C(OC5CC(C)(OC)C(O)C(C)O5)C(C)C(=O)OC(CC)C(C)(O)C(O)C(C)C(=O)C(C)CC4(C)OC)C3O)C2O)C(C)(OC)CC(C)C(=O)C(C)C(O)C1(C)O (centres unmarked) [Compound 753, 3′-de-N-methyl-3′-N-{2-amino-(3′-de-N-methyl-clarythromycin A)}ethyl-clarythromycin]	17	C (Growth of test organism was inhibited 55% or more and 75% or less.)	22	C (Growth of test organism was inhibited 55% or more and 75% or less.)			Inhibition activity (inhibition ring mm) A. niger ATCC 6275 GYM [2, 3]: 13 mm; Transparency of the inhibition ring A. niger ATCC 6275 GYM [2, 3]: E (Growth of test organism was inhibited 35% or less.)
CCC1OC(=O)C(C)C(OC2CC(C)(OC)C(O)C(C)O2)C(C)C(OC2OC(C)CC(N(C)CC=CCN(C)C3CC(C)OC(OC4C(C)C(OC5CC(C)(OC)C(O)C(C)O5)C(C)C(=O)OC(CC)C(C)(O)C(O)C(C)C(=O)C(C)CC4(C)O)C3O)C2O)C(C)(O)CC(C)C(=O)C(C)C(O)C1(C)O (centres unmarked) [Compound 757, 3′-de-N-methyl-3′-N-{4-amino-(3′-de-N-methyl-erythromycin A)}-2(E) -butenyl-erythromycin A]					18	D (Growth of test organism was inhibited 35% or more and 55% or less.)	Inhibition activity (inhibition ring mm) C. albicans ATCC 64548 GYF ([1]; 100 μg/8 mm disk): 17 mm; Transparency of the inhibition ring C. albicans ATCC 64548 GYF ([1]; 100 μg/8 mm disk): E (Growth of test organism was inhibited 35% or less.); Inhibition activity (inhibition ring mm) A. niger ATCC 6275 GY [2, 4]: 10 mm; Transparency of the inhibition ring A. niger ATCC 6275 GY [2, 4]: E (Growth of test organism was inhibited 35% or less.)
CCC1OC(=O)C(C)C(OC2CC(C)(OC)C(O)C(C)O2)C(C)C(OC2OC(C)CC(N(C)CC=CCN(C)C3CC(C)OC(OC4C(C)C(OC5CC(C)(OC)C(O)C(C)O5)C(C)C(=O)OC(CC)C(C)(O)C(O)C(C)C(=O)C(C)CC4(C)OC)C3O)C2O)C(C)(OC)CC(C)C(=O)C(C)C(O)C1(C)O (centres unmarked) [Compound 758, 3′-de-N-methyl-3′-N-{4-amino-(3′-de-N-methyl-clarythromycin A)}-2(E)-butenyl-clarythromycin A]	11	E (Growth of test organism was inhibited 35% or less.)	12	D (Growth of test organism was inhibited 35% or more and 55% or less.)			Inhibition activity (inhibition ring mm) C. albicans ATCC 64548 GYF ([1]; 100 μg/8 mm disk): 15 mm; Transparency of the inhibition ring C. albicans ATCC 64548 GYF ([1]; 100 μg/8 mm disk): E (Growth of test organism was inhibited 35% or less.)
CCC1OC(=O)C(C)C(OC2CC(C)(OC)C(O)C(C)O2)C(C)C(OC2OC(C)CC(N(C)C)C2O)C(C)(O)CC(C)C(=NOCC=CCON=C2C(C)CC(C)(O)C(OC3OC(C)CC(N(C)C)C3O)C(C)C(OC3CC(C)(OC)C(O)C(C)O3)C(C)C(=O)OC(CC)C(C)(O)C(O)C2C)C(C)C(O)C1(C)O (centres unmarked) [Compound 759, 9(E)-4-{9(E)-oxime-erythromycin A}-2-butenyloxime-erythromycin A]					13	D (Growth of test organism was inhibited 35% or more and 55% or less.)	
CCC1OC(=O)C(C)C(OC2CC(C)(OC)C(O)C(C)O2)C(C)C(OC2OC(C)CC(N(C)C)C2O)C(C)(O)CC(C)C(=NOCC=CCN2CCN(CC=CCON=C3C(C)CC(C)(O)C(OC4OC(C)CC(N(C)C)C4O)C(C)C(OC4CC(C)(OC)C(O)C(C)O4)C(C)C(=O)OC(CC)C(C)(O)C(O)C3C)CC2)C(C)C(O)C1(C)O (centres unmarked) [Compound 760, 9(E)-4-piperazine-{N-4-(9(E)-oxime-erythromycin A-2(E)butenyl)}-2-butenyloxime-erythromycin A]	10	E (Growth of test organism was inhibited 35% or less.)	14	D (Growth of test organism was inhibited 35% or more and 55% or less.)			Inhibition activity (inhibition ring mm) A. niger ATCC 6275 GYF ([2]; 10 μg/8 mm disk): 15 mm; Transparency of the inhibition ring A. niger ATCC 6275 GYF ([2]; 10 μg/8 mm disk): E (Growth of test organism was inhibited 35% or less.); Inhibition activity (inhibition ring mm) A. niger ATCC 6275 GYF ([2]; 50 μg/8 mm disk): 16 mm; Transparency of the inhibition ring A. niger ATCC 6275 GYF ([2]; 50 μg/8 mm disk): E (Growth of test organism was inhibited 35% or less.)
CCC1OC(=O)C(C)C(OC2CC(C)(OC)C(O)C(C)O2)C(C)C(OC2OC(C)CC(N(C)C)C2O)C(C)(O)CC(C)C(=NOCC=CCNCCNCC=CCON=C2C(C)CC(C)(O)C(OC3OC(C)CC(N(C)C)C3O)C(C)C(OC3CC(C)(OC)C(O)C(C)O3)C(C)C(=O)OC(CC)C(C)(O)C(O)C2C)C(C)C(O)C1(C)O (centres unmarked) [Compound 761]					14	E (Growth of test organism was inhibited 35% or less.)	
CCC1OC(=O)C(C)C(OC2CC(C)(OC)C(O)C(C)O2)C(C)C(OC2OC(C)CC(N(C)C)C2O)C(C)(O)CC(C)C(=NOCC=CCN2CCNCC2)C(C)C(O)C1(C)O (centres unmarked) [Compound 762]			13	D (Growth of test organism was inhibited 35% or more and 55% or less.)			Inhibition activity (inhibition ring mm) A. niger ATCC 6275 GYF ([2]; 10 μg/8 mm disk): 14 mm; Transparency of the inhibition ring A. niger ATCC 6275 GYF ([2]; 10 μg/8 mm disk): E (Growth of test organism was inhibited 35% or less.); Inhibition activity (inhibition ring mm) A. niger ATCC 6275 GYF ([2]; 50 μg/8 mm disk): 15 mm; Transparency of the inhibition ring A. niger ATCC 6275 GYF ([2]; 50 μg/8 mm disk): E (Growth of test organism was inhibited 35% or less.)
CCC1OC(=O)C(C)C(OC2CC(C)(OC)C(O)C(C)O2)C(C)C(OC2OC(C)CC(N(C)C)C2O)C(C)(O)CC(C)C(=NOCCCCON=C2C(C)CC(C)(O)C(OC3OC(C)CC(N(C)C)C3O)C(C)C(OC3CC(C)(OC)C(O)C(C)O3)C(C)C(=O)OC(CC)C(C)(O)C(O)C2C)C(C)C(O)C1(C)O (centres unmarked) [Compound 764, 9(E)-4-{9(E)-oxime-erythromycin A}-2(E)buthyloxime-erythromycin A]			9	E (Growth of test organism was inhibited 35% or less.)			
